Laboratory results published in US20080214399A1, “Enhanced amino acid formulations” (priority 2006, published 2008).

Test system: cotton cotyledons
Test: Cotton cotyledon bioassay: reduction of CPPU-induced ethylene production
Type: in vivo, cotton (variety SG 105)
Details: CPPU (200 μM) alone, reference = 1.00
Description: A cotton bioassay system has been used in the laboratory to study the effect of formulations on AVG performance. […] One spray application of CPPU (forchlorfenuron) is made to the bottom (abaxial) and AVG was subsequently applied to the top (adaxial) surface of the cotyledons. […] Water was used as the carrier. Further dilutions were prepared as needed for foliar applications. All the data was subject to an analysis of variance, and the mean separations were determined with Duncan's new multiple range test at α=0.05. The present invention may be illustrated by the following representative examples: […]

`O=C(Nc1ccccc1)Nc1ccnc(Cl)c1` [CPPU, forchlorfenuron] was tested, and the “Reduction as compared to CPPU-treated” value was 1.00.
